The values that follow come from patent US7993660B2, “Method of increasing immunological effect” (IRx Therapeutics, Inc., priority 2007, dated 2011).

Where a SMILES comes first, the peptide text is derived from it. The star is where a group is joined. Cbz = O=C(OCc1ccccc1)*; CH2F = FC*

Assay [1] deals with caspase-3 and caspase-7. In words: Caspase-3/-7 activation (caspase 3/7-FAM flow cytometry, Western immunoblot) in CD8+ Jurkat cells. The conditions noted are these: IRX-2 1:3 24 hours pre-treatment; zVAD 20 μM; ZB4 10 μg/mL; MV 10 μg 3 hours. It is filed as cell-based, human. On the procedure: To determine total or phosphorylated forms of Akt, Bcl-2, CD3ζ, caspase-3, JAK3, STAT5, FLIP, and Mcl-1, Jurkat CD8+ cells or purified activated CD8+ or CD4+ T-cells were co-incubated with MV at the indicated concentration and/or with IRX-2 (1:3 final dilution) for the indicated period of time at 37° C. The cells were then washed, centrifuged at 4° C. and lysed in equal volumes of ice-cold lysis-buffer (50 mM Tris-HCL pH 7.5, 150 mM NaCl, 0.5% Nonidet P-40) and protease inhibitor cocktail (Pierce Chemical Co., Rockford, Ill.). After lysis, the homogenates were clarified by centrifugation. The supernatants were isolated, and boiled for 5 minutes in 5× Laemmli sample buffer. […]
Total cellular Caspase activity was tested by intracellular staining of activated caspases using a pan caspase inhibitor, CASPACE FITC-VAD-FMK In Situ Marker (Promega, Madison, Wis.). […] Then cells were stained for cell surface receptors, fixed with 1% paraformaldehyde and analyzed by flow cytometry. The specific activation of caspase-3 and caspase-7 was measured using the VYBRANT FAM caspase-3 and -7 Assay Kit from Invitrogen (Carlsbad, Calif.) according to the manufacturers' instructions. […] The cells were analyzed by flow cytometry with the fluorescein measured on the FL1 channel. […]

Assay [2] relates to CD8+ Jurkat cells. Nature of the assay: Loss of mitochondrial membrane potential (JC-1) in CD8+ Jurkat cells. The conditions noted are these: IRX-2 1:3 24 hours pre-treatment, MV 10 μg 24 hours. In kind it is cell-based, human. As for the experimental part: The loss of mitochondrial membrane potential (MMP) as a hallmark of apoptosis was measured using the MITOPROBE JC-1 Assay Kit from Invitrogen (Carlsbad, Calif.). The cationic dye JC-1 (5,5′, 6,6′-tetrachloro-1,1′, 3,3′-tetraethylbenzimidazolylcarbocyanine iodide) exists in healthy cells as a green monomer in the cytosol and also accumulates as red aggregates in the mitochondria. In apoptotic and necrotic cells, JC-1 remains only in the cytoplasm due to mitochondrial depolarization, which can be detected by flow cytometry as a decrease in the red/green fluorescence intensity ratio. CD8+ Jurkat cells or activated T lymphocytes were incubated in PBS containing 2 μM of JC-1 for 30 minutes at 37° C., 5% CO2. […] The cells were analyzed using a flow cytometer immediately after staining.
CD8+ Jurkat cells were analyzed by flow cytometry for a decrease in red fluorescence of the cationic dye JC-1, indicating a loss of MMP. Percentage of JC-1 red-negative cells were determined in cultures of CD8+ Jurkat cells after no treatment, 24 hours treatment with MV (10 μg) alone (no IRX) or pre-treated for 24 hours with IRX-2 (1:3 dilution) or MV in combination with the apoptosis-inhibitor Z-VAD-FMK (pan-caspase inhibitor; conc) or ZB4 (anti-Fas neutralizing mAb, conc/dose). […]

The subject of assay [3] is activated peripheral blood CD8+ T-lymphocytes. In words: Caspase activation (FITC-VAD-FMK staining, flow cytometry) in activated primary CD8+ T cells. It is filed as cell-based, human. The conditions noted are these: for inhibition of PCI-13/FasL-MV-induced apoptosis (caspase-VAD-FITC binding): CD8+, IRX-2 1:3 or IL-7, IL-15 100 ng/mL 24 hours, MV 15 μg 24 hours; for mean % of FITC-VAD-FMK+ cells ± SD: CD8+ cells, 24 hours pre-incubation (IRX-2 1:3, IL-2 100 IU/mL, IL-7/IL-15 10 ng/mL). From the text: (§1) The head and neck squamous cell carcinoma (H&NSCC) cell line […] was established in Applicants' laboratory and maintained as previously described. It was retrovirally transfected with the human FasL gene obtained from Dr. S. Nagata (Osaka Biosciences Institute, Osaka, Japan) as previously reported. Supernatants of transfected PCI-13-cells (PCI-13-FasL), which contained both sFasL and the 42 kDa membranous form of FasL, were used as a source of tumor-derived microvesicles (MV). Jurkat cells were obtained from American Tissue Culture Collection (ATCC, Manassas, Va.) and were transfected with CD8. The CD8+ Jurkat cells were cultured in RPMI 1640 medium supplemented with 10% (v/v) fetal bovine serum (FBS), L-glutamine and antibiotics. Human T lymphocytes were isolated from peripheral blood mononuclear cells (PBMC) obtained from consented normal donors. PBMC were isolated by Ficoll-Hypaque density gradient centrifugation (GE Healthcare Bio-Sciences Corp., Piscataway, N.J.), washed and plated for 1 hour at 37° C. in culture flasks (T162) in an atmosphere of 5% CO2 to remove CD14+ monocytes. The non-adherent T-lymphocyte fraction was collected and immediately used for experiments or cryopreserved. CD8+ T cells or CD4+ T cells were purified by positive selection using CD8 MicroBeads or CD4 MicroBeads, respectively (Miltenyi Biotec, Auburn, Calif.) using the AutoMACS system according to the manufacturer's instructions. Purified CD8+ or CD4+ T cells were then cultured for 2-3 days in AIM V medium supplemented with 10% FBS in the presence of beads coated with anti-CD3 and anti-CD28 antibodies (T Cell Activation/Expansion Kit, Miltenyi Biotec). All cells used for the above described experiments were in the log phase of growth.
(§2) CD8+ Jurkat cells or activated normal T lymphocytes were plated at 0.3×10^6 cells per well in a 96-well plate and pre-treated or not with IRX-2 or with recombinant human cytokines at a final concentration of 10 ng/mL or 100 IU/mL for 24 hours (unless otherwise noted). MV (10 μg protein per 0.3×10^6 cells) were then added for 3-24 hours. In some experiments, cells were first co-incubated with MV for 3-24 hours, then washed and treated further with IRX-2 or cytokines or treated for the indicated time period with MV and IRX-2 added simultaneously. In selected blocking experiments, anti-Fas neutralizing monoclonal antibody, ZB-4, the pan-caspase inhibitor, Z-VAD-FMK, or the specific Akt-inhibitor or specific inhibitors for caspase-3, caspase-8 and caspase-9 were added at the indicated concentrations prior to MV co-incubation.
(§3) Four color flow cytometry was performed using a […] (Beckman Coulter) equipped with Expo32 software (Beckman Coulter). Lymphocytes were gated based on morphology, and debris, MV as well as monocytes and granulocytes were excluded, collecting data on at least 10^5 cells. For the analysis of activated primary T lymphocytes, gates were restricted to the CD3^+CD8^+ or CD3^+CD4^+ T-cell subsets. Data was analyzed using Coulter EXPO 32vl.2 analysis software.
(§4) Total cellular Caspase activity was tested by intracellular staining of activated caspases using a pan caspase inhibitor, CASPACE FITC-VAD-FMK In Situ Marker (Promega, Madison, Wis.). Cells were resuspended in PBS and FITC-VAD-FMK was added at a final concentration of 5 μM. The cells were incubated for 20 minutes at 37° C., 5% CO2 and washed with PBS. Then cells were stained for cell surface receptors, fixed with 1% paraformaldehyde and analyzed by flow cytometry. The specific activation of caspase-3 and caspase-7 was measured using the VYBRANT FAM caspase-3 and -7 Assay Kit from Invitrogen (Carlsbad, Calif.) according to the manufacturers' instructions. Briefly, cells were resuspended in PBS and stained with a 150× dilution of the carboxyfluorescein (FAM)-labeled FMK-caspase inhibitor for 60 minutes at 37° C., 5% CO2. Then the cells were washed in wash buffer and fixed with 1% paraformaldehyde.
(Flow cytometry measures light scatter and fluorescence of single cells or particles in a stream.)

The subject of assay [4] is activated peripheral blood CD4+ T-lymphocytes. In words: Caspase activation (FITC-VAD-FMK staining, flow cytometry) in activated primary CD4+ T cells. The conditions noted are these: for inhibition of PCI-13/FasL-MV-induced apoptosis (caspase-VAD-FITC binding): CD4+, IRX-2 1:3 or IL-7, IL-15 100 ng/mL 24 hours, MV 15 μg 24 hours; for mean % of FITC-VAD-FMK+ cells ± SD: CD4+ cells, 24 hours pre-incubation (IRX-2 1:3, IL-2 100 IU/mL, IL-7/IL-15 10 ng/mL). In kind it is cell-based, human.
Source text: as §1, §2, §3, §4

Assay [5] concerns CD8+ Jurkat cells. It is filed as cell-based. Particulars: 24 hours pre-treatment (IRX-2 1:3; IL-7, IL-15 10 ng/mL), PCI-13/FasL-MV 15 μg 3 hours; no IRX-2 lane 50%. On the procedure:
as §2
Total cellular Caspase activity was tested by intracellular staining of activated caspases using a pan caspase inhibitor, CASPACE FITC-VAD-FMK In Situ Marker (Promega, Madison, Wis.). […] Then cells were stained for cell surface receptors, fixed with 1% paraformaldehyde and analyzed by flow cytometry. The specific activation of caspase-3 and caspase-7 was measured using the VYBRANT FAM caspase-3 and -7 Assay Kit from Invitrogen (Carlsbad, Calif.) according to the manufacturers' instructions. […]

Where [6] appears, read: Table 2A MV-induced apoptosis, then 10 μg MV 24 hours.
[7] abbreviates: Table 2B CH-11 Ab-induced apoptosis, then 400 ng/mL CH-11 Ab 24 hours.

Regarding `COC(=O)C[C@H](NC(=O)[C@H](C)NC(=O)[C@@H](NC(=O)OCc1ccccc1)C(C)C)C(=O)CF` [zVAD] (Cbz-Val-Ala-Asp(OMe)-CH2F), in assay [1], the “MV-induced induction of caspase-3 and -7 activity (caspase-3/-7-FAM MFI)” value was “completely prevented”. Besides, in assay [2], the “MV-induced loss of mitochondrial membrane potential (JC-1 red-negative cells)” value is listed as “block was comparable to that provided by the two inhibitors”.
In the case of “IL-7: human recombinant survival cytokine, purchased from Peprotech”, the “inhibition of PCI-13/FasL-MV-induced apoptosis (caspase-VAD-FITC binding)” value in assay [3] and in assay [4] was “similarly effective compared to IRX-2” each time. The “mean % of FITC-VAD-FMK+ cells ± SD” value in assay [3] (setting [6]) is given as 49.5 ± 3.5%; in assay [3] (setting [7]), 37.7 ± 1.4%; in assay [4] (setting [6]) it was 34.5 ± 1.9%; in assay [4] (setting [7]), 31.8 ± 10.6%. Moreover, the “apoptotic cells (activated caspase-VAD-FITC binding CD8+ Jurkat cells)” value in assay [5] was “neither IL-7 nor IL-15 alone was able to reduce the level of apoptosis below the control MV-induced level”.
As for “IL-15: human recombinant survival cytokine, purchased from Peprotech”, the “inhibition of PCI-13/FasL-MV-induced apoptosis (caspase-VAD-FITC binding)” value in assay [3] and in assay [4] was “similarly effective compared to IRX-2” each time. Also, the “mean % of FITC-VAD-FMK+ cells ± SD” value in assay [3] (setting [6]) stood at 16.8 ± 6.2%; in assay [3] (setting [7]), 28.8 ± 3.1%; in assay [4] (setting [6]), 16.7 ± 2.1%; in assay [4] (setting [7]) it was 21.1 ± 5.3%. For the same compound, in assay [5], the “apoptotic cells (activated caspase-VAD-FITC binding CD8+ Jurkat cells)” value is “neither IL-7 nor IL-15 alone was able to reduce the level of apoptosis below the control MV-induced level”.
